Experimental findings from patent US9321798B2, “Phosphoramidite derivatives of gemcitabine for use in the treatment of cancer” (NuCana BioMed Limited, priority 2010, dated 2016) are described below.

SMILES strings stand for the structures.

The term EC50 denotes the concentration needed to bring the measured effect to its halfway point.

For this experiment, the system named is Human colon cancer cell line HRT18. As to the kind of experiment: MTT cytotoxicity / cell proliferation assay in HRT18 colon tumour cell line. In kind it is cell-based. To be noted: HRT-18, HRT18 cells, 72 h incubation, 0.128-2000 nM, read-out: EC50 (nM) Colorectal cell HRT18. The text has this:
The compounds can be assayed by many in vitro or in vivo methods, but in the first instance a cell proliferation assay is rapid and informative. Many tumour cell lines can be used for the assay, we herein report typical data for target compounds in HRT18 colon tumour cell line, using standard MTT assay methods, typical in many laboratories.
Human colon cancer cell line HRT18 were purchased from the European Collection of Animal Cell Cultures (ECACC, Salisbury, England). Cytoxicity assay was based on MTT assay as we previously reported. The method is based on the ability of viable mitochondria to convert MTT, a soluble tetrazolium salt (3-[4,5-dimethylthiazd-2-yl]-2,5-diphenyltetrazolium bromide) into an insoluble formazan precipitate that is dissolved and quantified by spectrophotometry. A 96-well culture cell culture plate was used. Cells were counted with a haemocytomete counting chamber and a specific number (4000 per well) of cells were seeded to each well with culture medium (DMEM). Compounds, dissolved in DMSO, were series diluted (1:5) in culture medium, to cover a final concentration range between 0.128 and 2000 nM. The culture plate was incubated for 72 h at 37° C. The cells were washed twice with BSS. A solution of MTT in 0.5 mg/mL in culture medium was added into each well. The culture plate was then incubated at 37° C. for 4 h. MTT was then removed by aspiration. The crystals produced by MTT reagent within the cells were then extracted by the addition of 100 µL of Triton X100 (10% in water). The cells were incubated at 4° C. for 24 h. The absorbance of the colorimetric products was then measured at a wavelength of 540 nm using a spectrophotometer (Titertecek).

`C[C@H](NP(=O)(N[C@@H](C)C(=O)OCc1ccccc1)OC[C@H]1O[C@@H](n2ccc(N)nc2=O)C(F)(F)C1O)C(=O)OCc1ccccc1` (stereo partly drawn) [CPF457, 2′-Deoxy-2′,2′-difluoro-D-cytidine-5′-O-bis(benzoxy-L-alaninyl)] phosphate]: the 50% effective concentration (EC50) is 14 nM. As to `C[C@H](NP(=O)(N[C@@H](C)C(=O)OC1CCCCC1)OC[C@H]1O[C@@H](n2ccc(N)nc2=O)C(F)(F)C1O)C(=O)OC1CCCCC1` (stereo partly drawn) [CPF458], the EC50 turned out to be 31 nM. In the case of `CCOC(=O)[C@H](C)NP(=O)(N[C@@H](C)C(=O)OCC)OC[C@H]1O[C@@H](n2ccc(N)nc2=O)C(F)(F)C1O` (stereo partly drawn) [CPF459, 2′-Deoxy-2′,2′-difluoro-D-cytidine-5′-O-bis(ethoxy-L-alaninyl)phosphate], the concentration giving a half-maximal response (EC50) worked out at 42 nM. With `C[C@H](NP(=O)(N[C@@H](C)C(=O)OCC(C)(C)C)OC[C@H]1O[C@@H](n2ccc(N)nc2=O)C(F)(F)C1O)C(=O)OCC(C)(C)C` (stereo partly drawn) [CPF460], the EC50 was 1.6 nM. With `CC(C)OC(=O)[C@H](C)NP(=O)(N[C@@H](C)C(=O)OC(C)C)OC[C@H]1O[C@@H](n2ccc(N)nc2=O)C(F)(F)C1O` (stereo partly drawn) [CPF461], the EC50 amounted to 3.2 nM. Consider `Nc1ccn([C@@H]2O[C@H](CO)[C@@H](O)C2(F)F)c(=O)n1` [Gemcitabine, gemcitabine], for which the half-maximal effective concentration (EC50) is 64 nM.
